Measurements as given in US20240189291A1, “Prevention And Treatment Of Atrial Fibrillation/Flutter With Gamma-Ketoaldehyde Scavengers” (Vanderbilt University, priority 2016, published 2024).
Several values for one entry are separate records, joined by “and”; a condition that tells them apart may be missing. Identical values can stand only once. Entries after “also recorded” stand apart in the source; their conditions may differ. Like-named read-outs stand apart in the source and are kept apart here.

Experiments:
[1] = tested on: mice fed a high-fat diet (HFD); assay: Mouse model of diet-induced obesity (DIO) with inducible AF; assay type: in vivo; conditions: 12 weeks, co-treatment
Description: Experimental obesity: Evidence for IsoLGs in AF susceptibility. Given that obesity is also linked to inflammation and oxidative stress, we have begun studies to investigate the role of IsoLGs in a mouse model of diet-induced obesity (DIO). […] Thus, in the early stages of both HTN and obesity, the present inventors show a role for IsoLGs in the AF substrate. In both HTN and obesity, AF was inducible in the absence of fibrosis, with reversibility in HTN. These findings imply that IsoLGs constitute an early pathologic target, and that their inhibition could potentially prevent the development of AF. In the proposed studies, we will confirm the critical role of IsoLGs using rigorous experimental approaches. For these studies, we use well-characterized murine models of HTN and obesity described above and routinely employed.
The following data are for 12 week-treated animals.

ROS = conditions: cited from earlier work
COX2 = target: T1, COX2 (Homo sapiens, UniProt P35354); conditions: cited from earlier work
T1 sequence (P35354 18-604): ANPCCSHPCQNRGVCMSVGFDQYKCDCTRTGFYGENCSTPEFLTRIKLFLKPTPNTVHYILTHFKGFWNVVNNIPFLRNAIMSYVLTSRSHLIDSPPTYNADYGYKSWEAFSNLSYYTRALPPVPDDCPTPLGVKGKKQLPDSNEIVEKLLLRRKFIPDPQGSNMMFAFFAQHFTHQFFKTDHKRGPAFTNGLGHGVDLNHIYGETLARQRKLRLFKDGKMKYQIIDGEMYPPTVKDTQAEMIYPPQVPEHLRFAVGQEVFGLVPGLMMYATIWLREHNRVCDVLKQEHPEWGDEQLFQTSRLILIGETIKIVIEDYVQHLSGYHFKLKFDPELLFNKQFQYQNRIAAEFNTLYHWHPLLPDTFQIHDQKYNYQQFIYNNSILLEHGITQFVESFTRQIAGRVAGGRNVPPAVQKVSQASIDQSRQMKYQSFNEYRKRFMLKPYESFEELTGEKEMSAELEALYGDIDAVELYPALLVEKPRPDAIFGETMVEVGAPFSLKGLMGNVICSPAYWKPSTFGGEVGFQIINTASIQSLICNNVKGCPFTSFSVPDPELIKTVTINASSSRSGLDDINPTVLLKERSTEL

[2] = tested on: hypertensive (ang II) mice; assay: Murine model of ang II-mediated hypertension with inducible AF; assay type: in vivo; conditions: for AF burden / AF susceptibility (total inducible AF): 2-HOBA and 4-HOBA 1G/L in drinking water
Description: Experimental hypertension: Evidence for IsoLGs in AF susceptibility. Oxidative stress and PAO burden in human atrium are linked to HTN. […] The present inventors have determined that IsoLGs are mediators for AF susceptibility in HTN using a murine model (2 wk mini-pump infusion of angiotensin II [ang II]), in which mice develop sustained HTN and inducible AF. […] Importantly, mass spectrometry data have confirmed this finding (FIG. 5B), with a striking 100 fold increase in atrial adduct formation during HTN (2-3 fold greater increase than that seen in Alzheimer's brain). In addition, PAOs accumulated in the atria of hypertensive compared to control mice (FIGS. 5C and D). […] As expected, hypertensive mice developed inducible AF compared to control (FIG. 7). […] Normalization of BP in ang II-treated mice with hydralazine/HCTZ prevented AF susceptibility, while mechanical stretch of atrial myocytes generated both LG adducts (FIG. 9) and PAOs (not shown), signifying a critical role of atriomyocyte stretch. The AF substrate was reversible by 2 wks after stopping ang II (85% reduction in total AF burden), with partial normalization of BP (74%; n=13, data not shown). Of note, 2-HOBA had no effects on any ECG parameters in HTN mice.

COX1 = COX1 (Homo sapiens, UniProt P23219); conditions: cited from earlier work
[3] = tested on: mouse model of Alzheimer's disease; conditions: cited from earlier work
atrial HL-1 cells [4] = assay: Rapid pacing of cultured atrial HL-1 cells (cellular model simulating AF); assay type: cell-based
Description: Protein oligomers and IsoLGs in a cellular model simulating AF. […] Moreover, exposure of unpaced cells to a physiologic concentration of IsoLGs caused cytosolic PAO production, similar to that observed with rapid pacing (FIG. 4, top panels).

IsoLGs = conditions: cited from earlier work
[5] = in vitro studies, in vivo studies in mice, pre-clinical toxicology studies; cited from earlier work
[6] = tested on: hypertensive (ang II) mice; conditions: ang II-mediated HTN in mice, earlier work (Kirabo and colleagues), cited from earlier work
atrial HL-1 cells [7] = assay: Cytotoxicity of ANP oligomers to atrial HL-1 cells (ATP production); assay type: cell-based; conditions: peptide oligomers, 24 hr exposure; listed as ANP oligomers
Method: Mutant ANP is highly fibrillogenic, generating cytotoxic PAOs. To compare oligomer formation between WT and mutant ANP, Western analysis was performed on peptides allowed to oligomerize at 23° C. for variable time points. […] For amyloid β1-42, oligomer toxicity is a transient, time-dependent phenomenon, in the progression from monomers to PAOs to fibrils. To investigate this process for WT and mutant ANP, peptides incubated in vitro to generate oligomers over different time periods were incubated with atrial HL-1 cells for 24 hr. For WT ANP, proteotoxicity (manifested by decreased cellular ATP production) was maximal for PAOs generated during a 2 wk incubation, while for mutant ANP, the time point of maximal oligomer cytotoxicity occurred much earlier, within ˜3 d (FIG. 14). Cytotoxicity was confirmed by measuring cellular oxygen consumption rate using extracellular flux analysis (Seahorse Bioscience XFE96). Thus, oligomers formed by both WT and mutant ANP cause atrial myocyte dysfunction, as evidenced by reduced cardiomyocyte ATP production, with proteotoxicity occurring earlier for mutant compared to WT ANP, consistent with accelerated oligomer formation.

[8] = ang II-treated hypertensive mice, 1G/L in drinking water
[9] = ang II-treated hypertensive mice
[10] = rapidly paced atrial HL-1 cells in presence of compound

Chain of COX1 (P23219 24-599): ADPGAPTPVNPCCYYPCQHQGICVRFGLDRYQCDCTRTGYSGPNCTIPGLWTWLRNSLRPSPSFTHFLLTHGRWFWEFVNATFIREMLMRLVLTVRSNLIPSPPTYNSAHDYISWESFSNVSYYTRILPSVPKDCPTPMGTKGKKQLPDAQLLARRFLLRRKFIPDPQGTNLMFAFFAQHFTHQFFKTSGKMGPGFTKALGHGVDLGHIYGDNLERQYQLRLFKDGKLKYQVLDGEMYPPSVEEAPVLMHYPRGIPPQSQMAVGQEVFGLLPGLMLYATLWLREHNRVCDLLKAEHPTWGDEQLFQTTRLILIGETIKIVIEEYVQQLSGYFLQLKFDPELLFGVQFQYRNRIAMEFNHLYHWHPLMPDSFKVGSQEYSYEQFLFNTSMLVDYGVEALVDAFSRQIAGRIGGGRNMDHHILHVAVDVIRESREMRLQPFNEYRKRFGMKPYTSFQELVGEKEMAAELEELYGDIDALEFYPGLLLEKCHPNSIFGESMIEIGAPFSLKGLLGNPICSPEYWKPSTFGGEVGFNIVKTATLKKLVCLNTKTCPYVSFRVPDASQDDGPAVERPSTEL

## NCc1ccccc1O [2-HOBA, 2-hydroxybenzylamine]
[1]
  AF burden (total inducible AF): suppressed and markedly suppressed and 2-HOBA reduces
ROS
  ROS levels: does not reduce ROS levels significantly
ROS; during in vitro oxidation
  concentrations of O2·− or F2-Isoprostanes: do not affect
COX2
  inhibition of COX2 enzyme: does not inhibit
[2]; HTN mice
  ECG parameters: no effects
[2]; [8]
  atrial IsoLG adducts: prevents and markedly reduced and 2-HOBA reduces
  atrial PAO formation: prevents and markedly reduced and 2-HOBA reduces
[2]; [9]
  AF burden / AF susceptibility (total inducible AF): suppressed and markedly reduced and 2-HOBA reduces
COX1
  inhibition of COX1 enzyme: does not inhibit
[3]
  development of cognitive impairment / therapeutic benefit: prevent
[3]; listed as salicylamine
  development of cognitive impairment / therapeutic benefit: remarkable therapeutic benefit
Atrial HL-1 cells [4]; [10]
  PAO formation: virtually eliminated and 2-HOBA prevents
  myocyte stress response (transcriptional upregulation of Nppb and Hspa1a): blunted
Atrial HL-1 cells [4]; rapidly-beating atrial cell model
  isoLG adducts: 2-HOBA prevents
IsoLGs
  dicarbonyl scavenging activity: can also scavenge other injurious lipid dicarbonyl compounds such as MDA
  rate of reaction with IsoLGs compared to IsoLG binding to the ε-amine of lysine: much more rapid rate (by several orders of magnitude)
[5]
  safety profile: excellent safety profile
[6]
  blood pressure / antihypertensive effect: effectively lowered; also recorded: prominent antihypertensive effect
[6]; listed as salicylamine
  blood pressure / antihypertensive effect: remarkable therapeutic benefit

## NCc1ccc(O)cc1 [4-HOBA, reference compound]
[1]
  AF burden (total inducible AF): had no effect; also recorded: did not
[2]; [9]
  AF burden / AF susceptibility (total inducible AF): had no effect
IsoLGs
  dicarbonyl scavenging activity: cannot scavenge dicarbonyls

## WT ANP: wild-type atrial natriuretic peptide (28 amino acids), incubated to form oligomers
Atrial HL-1 cells [7]
  cytotoxicity (ATP production by atrial HL-1 cells): reduced ATP production; also recorded: cytotoxic

## hydralazine/hydrocholorothiazide [hydralazine/HCTZ, reference compound]
[2]; [9]
  AF burden / AF susceptibility (total inducible AF): prevented
[2]; ang II-treated mice
  blood pressure (BP): Normalization
